According to PubChem BioAssay (NCI):
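Exposure lasted 48 hours, with cells grown in 96-well plates and compounds tested at five concentrations. TGI: total growth inhibition.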

Tests used:
Assay in all cases: NCI anticancer screen, dose series, 48 h
[1] = test system: A498 renal
[2] = test system: NCI-H23 lung
[3] = test system: SF-295 CNS
[4] = test system: HT29 colon
[5] = test system: SK-OV-3 ovarian
[6] = test system: HCC-2998 colon
[7] = test system: U251 CNS
[8] = test system: IGROV1 ovarian
[9] = test system: NCI-H522 lung
[10] = test system: SR leukemia
[11] = test system: PC-3 prostate
[12] = test system: MDA-N
[13] = test system: SW-620 colon
[14] = test system: MCF7 breast
[15] = test system: RPMI-8226 leukemia
[16] = test system: OVCAR-5 ovarian
[17] = test system: MDA-MB-231 breast
[18] = test system: MOLT-4 leukemia
[19] = test system: T-47D breast
[20] = test system: M14 melanoma
[21] = test system: LOX IMVI melanoma
[22] = test system: A549 NSCLC
[23] = test system: UO-31 renal
[24] = test system: SK-MEL-2 melanoma
[25] = test system: SK-MEL-5 melanoma
[26] = test system: SN12C renal
[27] = test system: NCI-H460 lung
[28] = test system: HOP-62 NSCLC
[29] = test system: DU-145 prostate
[30] = test system: K-562 leukemia
[31] = test system: SK-MEL-28 melanoma
[32] = test system: 786-0 renal
[33] = test system: UACC-257 melanoma
[34] = test system: KM12 colon
[35] = test system: OVCAR-3 ovarian
[36] = test system: HCT-15 colon
[37] = test system: SNB-19 CNS
[38] = test system: SF-268 CNS
[39] = test system: MDA-MB-435
[40] = test system: OVCAR-8 ovarian
[41] = test system: BT-549 breast
[42] = test system: SF-539 CNS
[43] = test system: CAKI-1 renal
[44] = test system: MALME-3M melanoma
[45] = test system: HS 578T breast
[46] = test system: NCI-H226 lung
[47] = test system: CCRF-CEM leukemia
[48] = test system: HCT-116 colon
[49] = test system: COLO 205 colon
[50] = test system: SNB-75 CNS
[51] = test system: NCI/ADR-RES ovarian
[52] = test system: ACHN renal
[53] = test system: UACC-62 melanoma
[54] = test system: OVCAR-4 ovarian
[55] = test system: TK-10 renal
[56] = test system: HOP-92 NSCLC
[57] = test system: EKVX NSCLC
[58] = test system: HL-60(TB) leukemia
[59] = test system: RXF 393 renal

Molecule `C=C(C)C(=O)O[C@H]1C/C(CO)=C/CCC(=C)C(OC(C)=O)[C@H]2OC(=O)C(=C)[C@H]12` (some centres not stated) has a TGI [1] of 43 µM, a TGI [2] of 25 µM and a TGI [3] of 91.4 µM. For the same molecule, the TGI [4] was 21.7 µM, the TGI [5] was > 100 µM and the TGI [6] was 32 µM. It also gave a TGI [7] of 35.8 µM, a TGI [8] of 48.2 µM and a TGI [9] of 11 µM. For the same molecule, the TGI [10] was 17.5 µM, the TGI [11] was 58.9 µM and the TGI [12] was 19.1 µM. For the same molecule, the TGI [13] was 74.2 µM, the TGI [14] was 22.3 µM and the TGI [15] was 19.3 µM. The TGI [16] was 88.7 µM, the TGI [17] was 25.4 µM and the TGI [18] was 17.2 µM. It also gave a TGI [19] of 28 µM, a TGI [20] of 12.5 µM and a TGI [21] of 27 µM. It also gave a TGI [22] of 55.8 µM, a TGI [23] of 17.7 µM and a TGI [24] of 35.6 µM. The TGI [25] was 28.3 µM, the TGI [26] was 30.8 µM and the TGI [27] was 41.7 µM. It also gave a TGI [28] of 73.8 µM, a TGI [29] of 37.4 µM and a TGI [30] of 11.7 µM. It also gave a TGI [31] of 20.6 µM, a TGI [32] of 12.8 µM and a TGI [33] of 24.8 µM. The TGI [34] was 33.3 µM, the TGI [35] was 18.7 µM and the TGI [36] was 33.6 µM. The TGI [37] was > 100 µM, the TGI [38] was 10.9 µM and the TGI [39] was 17.8 µM. It also gave a TGI [40] of 39.8 µM, a TGI [41] of 12.1 µM and a TGI [42] of 33.6 µM. The TGI [43] was 21.5 µM, the TGI [44] was 26.7 µM and the TGI [45] was > 100 µM. For the same molecule, the TGI [46] was > 100 µM, the TGI [47] was 6.2 µM and the TGI [48] was 13.7 µM. The TGI [49] was 15.7 µM, the TGI [50] was 9.12 µM and the TGI [51] was 61.2 µM. For the same molecule, the TGI [52] was 22.9 µM and the TGI [53] was 23 µM.

For `CCOC(=O)c1ccc(Nc2cnc3cc(C(F)(F)F)ccc3n2)cc1`, the TGI [1] was > 100 µM, the TGI [2] was > 100 µM and the TGI [54] was > 100 µM. The TGI [3] was > 100 µM, the TGI [4] was > 100 µM and the TGI [5] was > 100 µM. The TGI [6] was > 100 µM, the TGI [7] was > 100 µM and the TGI [55] was > 100 µM. For the same molecule, the TGI [8] was > 100 µM, the TGI [9] was > 100 µM and the TGI [10] was > 100 µM. For the same molecule, the TGI [11] was > 100 µM, the TGI [12] was > 100 µM and the TGI [13] was > 100 µM. For the same molecule, the TGI [15] was > 100 µM, the TGI [56] was > 100 µM and the TGI [16] was > 100 µM. The TGI [17] was > 100 µM, the TGI [18] was > 100 µM and the TGI [19] was > 100 µM. For the same molecule, the TGI [21] was > 100 µM, the TGI [57] was > 100 µM and the TGI [22] was > 100 µM. For the same molecule, the TGI [23] was > 100 µM, the TGI [25] was > 100 µM and the TGI [26] was > 100 µM. For the same molecule, the TGI [27] was > 100 µM, the TGI [28] was > 100 µM and the TGI [29] was > 100 µM. For the same molecule, the TGI [30] was > 100 µM, the TGI [31] was > 100 µM and the TGI [32] was > 100 µM. The TGI [33] was > 100 µM, the TGI [34] was > 100 µM and the TGI [35] was > 100 µM. For the same molecule, the TGI [36] was > 100 µM, the TGI [38] was > 100 µM and the TGI [39] was > 100 µM. The TGI [40] was > 100 µM, the TGI [58] was > 100 µM and the TGI [41] was > 100 µM. For the same molecule, the TGI [42] was > 100 µM, the TGI [43] was > 100 µM and the TGI [44] was > 100 µM. The TGI [45] was > 100 µM, the TGI [46] was > 100 µM and the TGI [47] was > 100 µM. For the same molecule, the TGI [48] was > 100 µM, the TGI [49] was > 100 µM and the TGI [50] was > 100 µM. For the same molecule, the TGI [51] was > 100 µM, the TGI [52] was > 100 µM and the TGI [53] was > 100 µM.

For `COc1cccc(C2c3cc4c(cc3OC(C)(N3CCCC3)C2C)OCO4)c1OC` (configuration not stated), the TGI [2] was 44.6 µM, the TGI [54] was 46.1 µM and the TGI [3] was > 100 µM. It also gave a TGI [4] of 22.3 µM, a TGI [5] of 69.6 µM and a TGI [6] of 53.2 µM. For the same molecule, the TGI [7] was 24.5 µM, the TGI [55] was 89.1 µM and the TGI [8] was > 100 µM. The TGI [9] was 52.3 µM, the TGI [10] was 22.5 µM and the TGI [11] was 41.2 µM. For the same molecule, the TGI [12] was 34.7 µM, the TGI [13] was > 100 µM and the TGI [14] was 98.6 µM. The TGI [15] was > 100 µM, the TGI [56] was 71.2 µM and the TGI [16] was 43 µM. The TGI [17] was 52.9 µM, the TGI [18] was 27.4 µM and the TGI [19] was 46.6 µM. The TGI [20] was 45.5 µM, the TGI [21] was 27 µM and the TGI [57] was 78.2 µM. It also gave a TGI [22] of 35.8 µM, a TGI [23] of 37.5 µM and a TGI [24] of 27 µM. It also gave a TGI [25] of 28.4 µM, a TGI [26] of 41.6 µM and a TGI [27] of 28.4 µM. For the same molecule, the TGI [28] was 30.6 µM, the TGI [29] was 49.9 µM and the TGI [30] was 53.1 µM. The TGI [31] was > 100 µM, the TGI [32] was > 100 µM and the TGI [33] was 64.1 µM. For the same molecule, the TGI [34] was 23 µM, the TGI [35] was 25.4 µM and the TGI [36] was 30.7 µM. It also gave a TGI [37] of 95.5 µM, a TGI [38] of 81.3 µM and a TGI [39] of 49.3 µM. The TGI [40] was 98.1 µM, the TGI [58] was 22.8 µM and the TGI [41] was 32.6 µM. For the same molecule, the TGI [43] was 47.4 µM, the TGI [44] was 66.5 µM and the TGI [45] was 52.5 µM. It also gave a TGI [46] of 58.5 µM, a TGI [47] of 35.7 µM and a TGI [48] of 17.7 µM. The TGI [49] was 24.6 µM, the TGI [59] was 86.7 µM and the TGI [50] was 94.3 µM. The TGI [51] was 76.8 µM, the TGI [52] was 31.6 µM and the TGI [53] was 51.5 µM.

In the case of `O=C(O)CCNc1ccccc1C(=O)O`, the TGI [1] is reported as > 100 µM, the TGI [2] is reported as > 100 µM and the TGI [54] is reported as > 100 µM. For the same molecule, the TGI [3] was > 100 µM, the TGI [4] was > 100 µM and the TGI [5] was > 100 µM. The TGI [7] was > 100 µM, the TGI [55] was > 100 µM and the TGI [8] was > 100 µM. The TGI [9] was > 100 µM, the TGI [10] was > 100 µM and the TGI [11] was > 100 µM. For the same molecule, the TGI [12] was > 100 µM, the TGI [13] was > 100 µM and the TGI [14] was > 100 µM. The TGI [15] was > 100 µM, the TGI [56] was > 100 µM and the TGI [16] was > 100 µM. For the same molecule, the TGI [17] was > 100 µM, the TGI [18] was > 100 µM and the TGI [19] was > 100 µM. For the same molecule, the TGI [20] was > 100 µM, the TGI [21] was > 100 µM and the TGI [57] was > 100 µM. For the same molecule, the TGI [22] was > 100 µM, the TGI [23] was > 100 µM and the TGI [24] was > 100 µM. The TGI [25] was > 100 µM, the TGI [26] was > 100 µM and the TGI [27] was > 100 µM. For the same molecule, the TGI [28] was > 100 µM, the TGI [29] was > 100 µM and the TGI [30] was > 100 µM. The TGI [31] was > 100 µM, the TGI [32] was > 100 µM and the TGI [33] was > 100 µM. The TGI [34] was > 100 µM, the TGI [35] was > 100 µM and the TGI [36] was > 100 µM. The TGI [37] was > 100 µM, the TGI [38] was > 100 µM and the TGI [39] was > 100 µM. The TGI [40] was > 100 µM, the TGI [58] was > 100 µM and the TGI [41] was > 100 µM. For the same molecule, the TGI [42] was > 100 µM, the TGI [43] was > 100 µM and the TGI [44] was > 100 µM. The TGI [45] was > 100 µM, the TGI [46] was > 100 µM and the TGI [47] was > 100 µM. The TGI [48] was > 100 µM, the TGI [49] was > 100 µM and the TGI [59] was > 100 µM. The TGI [50] was > 100 µM, the TGI [51] was > 100 µM and the TGI [52] was > 100 µM. For the same molecule, the TGI [53] was > 100 µM.
